Seven compounds from PubChem BioAssay (NCI) can be followed below.

Among the test systems are LOX IMVI melanoma; SK-OV-3 ovarian; NCI-H522 lung; OVCAR-4 ovarian; HCT-116 colon; SF-539 CNS; DU-145 prostate; TK-10 renal; U251 CNS; HCC-2998 colon; HS 578T breast; KM12 colon; BT-549 breast; MCF7 breast; SK-MEL-28 melanoma; OVCAR-5 ovarian; MALME-3M melanoma; RPMI-8226 leukemia; OVCAR-8 ovarian.
Holding throughout (test): inhibition of tumour cell growth, NCI panel, 48 h

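Protocol summary: plate cells (96-well), add compound at 5 concentrations, incubate 48 h, interpolate endpoints linearly. TGI marks complete inhibition of growth.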

Regarding `O=C(Nc1sccc1S(=O)(=O)c1ccccc1)c1ccccc1`, the TGI in the assay on LOX IMVI melanoma, in the assay on SK-OV-3 ovarian, with NCI-H522 lung, in the assay with OVCAR-4 ovarian, in the assay with HCT-116 colon and with SF-539 CNS was > 100 µM throughout. Further, the TGI with DU-145 prostate, in the assay with TK-10 renal, with U251 CNS, with HCC-2998 colon, in the assay on HS 578T breast and with KM12 colon was > 100 µM in each case. Also, the TGI in the assay with BT-549 breast, with MCF7 breast, with SK-MEL-28 melanoma, in the assay with OVCAR-5 ovarian, in the assay with MALME-3M melanoma and in the assay on RPMI-8226 leukemia was > 100 µM in each case. The TGI in the assay on OVCAR-8 ovarian is > 100 µM.
Take `CCOC(=O)CN1CC(C2=C(O)CN(CC(=O)OCC)C2=O)=CC1=O`: the TGI with LOX IMVI melanoma, in the assay on SK-OV-3 ovarian, in the assay on NCI-H522 lung, with OVCAR-4 ovarian, in the assay with HCT-116 colon and in the assay on SF-539 CNS was > 100 µM throughout. Moreover, the TGI in the assay with DU-145 prostate, with TK-10 renal, with U251 CNS, with HCC-2998 colon, in the assay on HS 578T breast and in the assay on KM12 colon was > 100 µM throughout. The TGI with BT-549 breast, in the assay with MCF7 breast, with SK-MEL-28 melanoma, in the assay with OVCAR-5 ovarian, with MALME-3M melanoma and with RPMI-8226 leukemia was > 100 µM throughout. Further, the TGI in the assay with OVCAR-8 ovarian is > 100 µM.
Take `CC(C)(C)OC(=O)CN1CCN(CC(=O)N2CCN(C(=O)OCc3ccccc3)CC2)CCN(CC(=O)OC(C)(C)C)CCN(CC(=O)N2CCN(C(=O)OCc3ccccc3)CC2)CC1`: the TGI is 2.93 µM in the assay with LOX IMVI melanoma; 16.5 µM in the assay with SK-OV-3 ovarian; 2.87 µM in the assay on NCI-H522 lung; 16.2 µM in the assay with OVCAR-4 ovarian; > 38 µM with HCT-116 colon; 6.85 µM in the assay with SF-539 CNS. In addition, the TGI was determined as 20.1 µM with DU-145 prostate; 15.9 µM in the assay on TK-10 renal; 9.51 µM in the assay with U251 CNS; 6.55 µM in the assay on HCC-2998 colon; 5.67 µM with HS 578T breast; 3.06 µM in the assay with KM12 colon. The TGI with BT-549 breast came out at 14.5 µM; in the assay with MCF7 breast, 14.9 µM; in the assay with SK-MEL-28 melanoma it was 16.2 µM; in the assay on OVCAR-5 ovarian, 25.8 µM; in the assay with MALME-3M melanoma, 7.94 µM; in the assay with RPMI-8226 leukemia it was 2.91 µM. In the assay with OVCAR-8 ovarian, this compound gave a TGI of 16.8 µM.
With `O=[N+]([O-])/C(C(Cl)=C(Cl)Cl)=C(\N1CCCCC1)n1nnc2ccccc21`, the TGI in the assay on LOX IMVI melanoma is 31.7 µM; in the assay on SK-OV-3 ovarian it was 68.2 µM; in the assay on NCI-H522 lung it was 40 µM; in the assay with OVCAR-4 ovarian, > 100 µM; in the assay with HCT-116 colon, 33.4 µM; with SF-539 CNS it was 33.6 µM. Besides, the TGI in the assay with DU-145 prostate was 37.7 µM; with TK-10 renal it was 35.5 µM; with U251 CNS, 31.1 µM; in the assay with HCC-2998 colon, 26.2 µM; in the assay on HS 578T breast, 81.8 µM; in the assay on KM12 colon, > 88 µM. Moreover, the TGI was 49.4 µM with BT-549 breast; > 69.4 µM in the assay on MCF7 breast; 48.3 µM in the assay on SK-MEL-28 melanoma; 36.9 µM in the assay on OVCAR-5 ovarian; 39.6 µM in the assay on MALME-3M melanoma; 38.6 µM in the assay with RPMI-8226 leukemia. Also, in the assay with OVCAR-8 ovarian, the TGI came out at 42.6 µM.
`COc1cc(NC=C2C(=O)OC(C)(C)OC2=O)c(OC)c(C)c1OC`: the TGI in the assay on LOX IMVI melanoma, in the assay with SK-OV-3 ovarian, in the assay on NCI-H522 lung, with OVCAR-4 ovarian, with HCT-116 colon and in the assay with SF-539 CNS was > 100 µM throughout. Also, the TGI in the assay on DU-145 prostate, in the assay on TK-10 renal, in the assay on U251 CNS, in the assay on HCC-2998 colon, in the assay on HS 578T breast and with KM12 colon was > 100 µM in each case. Besides, the TGI with BT-549 breast, in the assay with MCF7 breast, in the assay on SK-MEL-28 melanoma, with OVCAR-5 ovarian, in the assay on MALME-3M melanoma and in the assay with RPMI-8226 leukemia was > 100 µM in each case. In addition, the TGI in the assay with OVCAR-8 ovarian was > 100 µM.
`COP(=O)(OC)/C(=C/c1cn(C(c2ccccc2)(c2ccccc2)c2ccccc2)cn1)NC=O`: the TGI in the assay with LOX IMVI melanoma worked out at 32.5 µM; in the assay on SK-OV-3 ovarian it was 90.8 µM; with NCI-H522 lung it was 41.2 µM; in the assay on OVCAR-4 ovarian, 51.9 µM; with HCT-116 colon it was 32.8 µM; with SF-539 CNS, 28.3 µM. In addition, the TGI was > 100 µM in the assay with DU-145 prostate; 46.3 µM in the assay on TK-10 renal; 35.4 µM with U251 CNS; 33.3 µM in the assay on HCC-2998 colon; 43.2 µM in the assay with HS 578T breast; > 100 µM with KM12 colon. Further, the TGI was 30.6 µM with BT-549 breast; 33.7 µM with MCF7 breast; 93.6 µM in the assay on SK-MEL-28 melanoma; 38.2 µM with OVCAR-5 ovarian; 38.5 µM in the assay on MALME-3M melanoma; > 100 µM in the assay with RPMI-8226 leukemia. This compound yielded a TGI in the assay on OVCAR-8 ovarian of 60.4 µM.
As for `Nc1c2c(nc3ccccc13)-c1ccccc1NCCC2`, the TGI was 35.5 µM in the assay on LOX IMVI melanoma; > 100 µM with SK-OV-3 ovarian; 82.6 µM with NCI-H522 lung; > 100 µM with OVCAR-4 ovarian; 94.3 µM in the assay with HCT-116 colon; 43.9 µM with SF-539 CNS. In addition, the TGI in the assay with DU-145 prostate was > 100 µM; in the assay with TK-10 renal, 49.6 µM; in the assay on U251 CNS, > 100 µM; with HCC-2998 colon, 27 µM; in the assay on HS 578T breast, > 100 µM; in the assay with KM12 colon, > 100 µM. Moreover, the TGI in the assay on BT-549 breast is > 100 µM; with MCF7 breast, > 100 µM; with SK-MEL-28 melanoma, 51.1 µM; with OVCAR-5 ovarian, > 100 µM; with MALME-3M melanoma, 32.9 µM; in the assay with RPMI-8226 leukemia, 58.5 µM. Moreover, the TGI with OVCAR-8 ovarian was > 100 µM.
